Experiments:
[1] = biological target: T1, rFCSN (truncated C. rotundicauda Factor C, CrFC26SN, lacking the LPS-binding domain, from P. pastoris) (Carcinoscorpius rotundicauda, UniProt Q26423); assay: Modified Western blot of LPS/lipid A
T1 construct: Pichia pastoris
T1 sequence (Q26423 1-1083): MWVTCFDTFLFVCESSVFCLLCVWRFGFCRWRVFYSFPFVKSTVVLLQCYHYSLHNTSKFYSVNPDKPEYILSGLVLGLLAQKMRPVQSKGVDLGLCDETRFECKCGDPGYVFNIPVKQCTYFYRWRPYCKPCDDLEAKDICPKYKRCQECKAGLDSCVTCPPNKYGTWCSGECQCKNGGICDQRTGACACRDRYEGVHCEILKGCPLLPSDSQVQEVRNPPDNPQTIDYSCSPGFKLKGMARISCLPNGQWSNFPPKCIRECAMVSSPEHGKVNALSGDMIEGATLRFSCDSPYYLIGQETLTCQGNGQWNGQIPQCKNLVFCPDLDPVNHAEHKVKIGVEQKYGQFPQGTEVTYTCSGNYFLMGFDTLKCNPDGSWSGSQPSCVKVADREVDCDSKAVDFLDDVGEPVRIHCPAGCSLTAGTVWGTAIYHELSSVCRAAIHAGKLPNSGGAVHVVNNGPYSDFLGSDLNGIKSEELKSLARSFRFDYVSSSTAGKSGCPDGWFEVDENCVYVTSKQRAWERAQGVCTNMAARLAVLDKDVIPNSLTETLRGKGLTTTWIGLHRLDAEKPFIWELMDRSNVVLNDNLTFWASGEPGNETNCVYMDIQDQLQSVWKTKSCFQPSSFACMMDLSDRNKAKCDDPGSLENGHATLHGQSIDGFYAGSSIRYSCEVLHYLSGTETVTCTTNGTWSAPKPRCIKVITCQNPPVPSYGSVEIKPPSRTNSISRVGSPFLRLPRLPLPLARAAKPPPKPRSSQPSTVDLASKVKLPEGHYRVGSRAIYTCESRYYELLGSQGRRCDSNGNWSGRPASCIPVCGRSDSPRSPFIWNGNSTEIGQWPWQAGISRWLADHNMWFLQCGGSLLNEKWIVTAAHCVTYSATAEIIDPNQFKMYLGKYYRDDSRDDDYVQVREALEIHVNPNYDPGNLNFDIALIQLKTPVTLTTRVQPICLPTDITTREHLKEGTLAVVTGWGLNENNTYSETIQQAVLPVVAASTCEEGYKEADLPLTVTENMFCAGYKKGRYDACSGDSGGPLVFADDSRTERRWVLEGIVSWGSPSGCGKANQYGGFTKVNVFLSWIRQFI
Description: (§1) LPS from E. coli 055:B5 (Sigma) was reconstituted to 2 μg/μl, and diphosphoryl lipid A from E. coli K12, D31m4 LPS (List Biologicals, Inc., USA) was made up to 1 μg/μl. The LPS-binding assay was based on modifications of earlier described protocols (45,61). Briefly, 10 μg aliquots of LPS/lipid A were electrophoresed on a denaturing 15% SDS-polyacrylamide gel and electroblotted onto Immobilon™ PVDF membrane. The membrane was cut into strips and each LPS/lipid A strip was subsequently incubated with 300 μg of proteins containing rFC. Detection of rFC binding to lipid A was accomplished by incubation with anti-Factor C antibody followed by alkaline phosphatase-conjugated secondary goat anti-rabbit antibody (Dako) and BCIP/NBT colorimetric substrate (Moss, Inc., USA).

[2] = biological target: T2, rFCEE (truncated C. rotundicauda Factor C, CrFC21EE, amino acids 1-766, from P. pastoris) (Carcinoscorpius rotundicauda, UniProt Q26422); assay: Modified Western blot of LPS/lipid A; assay type: binding; conditions: compared with rFC
T2 construct: Pichia pastoris, Biomax-50 enriched
T2 sequence (Q26422 1-766): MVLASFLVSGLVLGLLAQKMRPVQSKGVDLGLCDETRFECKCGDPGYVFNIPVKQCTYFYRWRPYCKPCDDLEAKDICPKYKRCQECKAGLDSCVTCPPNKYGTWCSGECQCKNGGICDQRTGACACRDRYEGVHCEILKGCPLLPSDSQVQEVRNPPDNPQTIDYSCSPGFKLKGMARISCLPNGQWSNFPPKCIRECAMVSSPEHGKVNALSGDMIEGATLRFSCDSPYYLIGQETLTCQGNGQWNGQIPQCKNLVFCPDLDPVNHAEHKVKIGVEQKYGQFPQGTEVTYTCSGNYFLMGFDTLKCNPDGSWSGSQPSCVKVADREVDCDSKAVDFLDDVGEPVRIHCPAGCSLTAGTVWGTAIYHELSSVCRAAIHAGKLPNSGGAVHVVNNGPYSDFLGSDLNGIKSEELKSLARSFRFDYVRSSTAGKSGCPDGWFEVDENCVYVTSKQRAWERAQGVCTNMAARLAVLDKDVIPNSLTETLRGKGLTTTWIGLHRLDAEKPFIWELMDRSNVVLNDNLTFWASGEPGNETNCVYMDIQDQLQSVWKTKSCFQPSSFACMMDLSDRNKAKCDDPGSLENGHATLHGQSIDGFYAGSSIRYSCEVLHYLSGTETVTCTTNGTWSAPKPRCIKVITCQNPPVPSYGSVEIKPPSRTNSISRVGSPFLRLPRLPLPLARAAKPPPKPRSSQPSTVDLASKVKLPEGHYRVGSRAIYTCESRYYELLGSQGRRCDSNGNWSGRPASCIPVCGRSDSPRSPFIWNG
Description: as §1

NH-LBP (aa 1-197) = conditions: Han et al., 1994; ligand cell empty; read-out: Equilibrium constant; cited from earlier work
[3] = biological target: T3, SSCrFCES (LPS-binding domain of C. rotundicauda Factor C, rFCES amino acids 29-330, numbered as in SEQ ID NO: 4) (Carcinoscorpius rotundicauda, UniProt Q26422); conditions: rFCES produced in Drosophila cells, 8 ng/μl; reference 77; cited from earlier work
T3 construct: rFCES (amino acids 29-330); made in house; host or cells: Drosophila S2 cells
T3 sequence (Q26422 29-330): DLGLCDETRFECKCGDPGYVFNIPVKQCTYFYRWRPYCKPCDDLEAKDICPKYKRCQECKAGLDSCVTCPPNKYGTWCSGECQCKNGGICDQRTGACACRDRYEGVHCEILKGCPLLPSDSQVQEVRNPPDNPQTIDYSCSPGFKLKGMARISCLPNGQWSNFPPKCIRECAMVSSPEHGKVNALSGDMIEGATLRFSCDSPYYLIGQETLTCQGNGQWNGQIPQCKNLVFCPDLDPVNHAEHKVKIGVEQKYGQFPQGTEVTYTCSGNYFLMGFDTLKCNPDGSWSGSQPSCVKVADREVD

lipid A
binding to the 7-20 kDa lipid A bands [1]: No binding
binding to lipid A moiety of LPS [2]: less strongly
Kd (NH-LBP (aa 1-197)): 51 nM
saturation of immobilized lipid A [3]: 92%

From US7297551B2, “Recombinant proteins and peptides for endotoxin biosensors, endotoxin removal, and anti-microbial and anti-endotoxin therapeutics” (priority 1998, dated 2007)
